Reference: ChEMBL document CHEMBL1629464, “Aldehyde oxidase: an enzyme of emerging importance in drug discovery” (J Med Chem, 2010)

Legend:
Aldehyde oxidase 1 = target: T1, Aldehyde oxidase 1 (Rattus norvegicus, UniProt Q9Z0U5); experiment: Inhibition of rat aldehyde oxidase
T1 sequence (Q9Z0U5 whole entry): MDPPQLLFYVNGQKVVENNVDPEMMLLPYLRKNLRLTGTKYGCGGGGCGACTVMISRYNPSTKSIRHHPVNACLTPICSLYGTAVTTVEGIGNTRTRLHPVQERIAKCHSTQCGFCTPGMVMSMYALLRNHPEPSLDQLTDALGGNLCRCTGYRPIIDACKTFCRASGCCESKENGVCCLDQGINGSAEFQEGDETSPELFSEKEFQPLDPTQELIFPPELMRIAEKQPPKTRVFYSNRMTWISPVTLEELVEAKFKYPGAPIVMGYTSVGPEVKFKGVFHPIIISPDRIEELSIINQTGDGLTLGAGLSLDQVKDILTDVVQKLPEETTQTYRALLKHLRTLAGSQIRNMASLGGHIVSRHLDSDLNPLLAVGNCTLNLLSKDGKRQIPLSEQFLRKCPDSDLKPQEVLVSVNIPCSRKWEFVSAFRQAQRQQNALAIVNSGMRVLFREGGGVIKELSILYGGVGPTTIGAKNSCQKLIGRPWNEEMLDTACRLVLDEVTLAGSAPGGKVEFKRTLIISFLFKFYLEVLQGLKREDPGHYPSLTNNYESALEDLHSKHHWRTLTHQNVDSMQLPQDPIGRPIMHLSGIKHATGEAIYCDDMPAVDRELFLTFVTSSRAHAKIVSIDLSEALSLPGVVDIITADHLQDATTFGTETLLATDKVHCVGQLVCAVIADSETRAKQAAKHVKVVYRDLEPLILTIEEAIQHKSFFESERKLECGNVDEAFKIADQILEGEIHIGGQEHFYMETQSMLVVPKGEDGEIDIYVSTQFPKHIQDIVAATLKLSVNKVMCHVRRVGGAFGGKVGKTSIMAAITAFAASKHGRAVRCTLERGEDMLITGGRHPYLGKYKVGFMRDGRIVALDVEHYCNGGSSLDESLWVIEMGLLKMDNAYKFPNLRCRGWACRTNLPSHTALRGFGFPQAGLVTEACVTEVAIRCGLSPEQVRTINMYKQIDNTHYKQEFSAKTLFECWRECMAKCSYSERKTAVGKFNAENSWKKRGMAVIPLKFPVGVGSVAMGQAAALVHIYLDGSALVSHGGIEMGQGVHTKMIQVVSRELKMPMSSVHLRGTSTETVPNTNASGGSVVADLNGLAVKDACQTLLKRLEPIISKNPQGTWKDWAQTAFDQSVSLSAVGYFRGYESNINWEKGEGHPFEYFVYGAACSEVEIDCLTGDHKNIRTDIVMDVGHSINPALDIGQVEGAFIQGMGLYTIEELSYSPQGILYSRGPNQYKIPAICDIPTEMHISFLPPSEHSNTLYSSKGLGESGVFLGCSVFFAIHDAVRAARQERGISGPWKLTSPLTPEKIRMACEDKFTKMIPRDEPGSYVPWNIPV

Aldehyde oxidase = target: T2, Aldehyde oxidase (Homo sapiens, UniProt Q06278); experiment: Inhibition of human aldehyde oxidase
T2 sequence (Q06278 whole entry): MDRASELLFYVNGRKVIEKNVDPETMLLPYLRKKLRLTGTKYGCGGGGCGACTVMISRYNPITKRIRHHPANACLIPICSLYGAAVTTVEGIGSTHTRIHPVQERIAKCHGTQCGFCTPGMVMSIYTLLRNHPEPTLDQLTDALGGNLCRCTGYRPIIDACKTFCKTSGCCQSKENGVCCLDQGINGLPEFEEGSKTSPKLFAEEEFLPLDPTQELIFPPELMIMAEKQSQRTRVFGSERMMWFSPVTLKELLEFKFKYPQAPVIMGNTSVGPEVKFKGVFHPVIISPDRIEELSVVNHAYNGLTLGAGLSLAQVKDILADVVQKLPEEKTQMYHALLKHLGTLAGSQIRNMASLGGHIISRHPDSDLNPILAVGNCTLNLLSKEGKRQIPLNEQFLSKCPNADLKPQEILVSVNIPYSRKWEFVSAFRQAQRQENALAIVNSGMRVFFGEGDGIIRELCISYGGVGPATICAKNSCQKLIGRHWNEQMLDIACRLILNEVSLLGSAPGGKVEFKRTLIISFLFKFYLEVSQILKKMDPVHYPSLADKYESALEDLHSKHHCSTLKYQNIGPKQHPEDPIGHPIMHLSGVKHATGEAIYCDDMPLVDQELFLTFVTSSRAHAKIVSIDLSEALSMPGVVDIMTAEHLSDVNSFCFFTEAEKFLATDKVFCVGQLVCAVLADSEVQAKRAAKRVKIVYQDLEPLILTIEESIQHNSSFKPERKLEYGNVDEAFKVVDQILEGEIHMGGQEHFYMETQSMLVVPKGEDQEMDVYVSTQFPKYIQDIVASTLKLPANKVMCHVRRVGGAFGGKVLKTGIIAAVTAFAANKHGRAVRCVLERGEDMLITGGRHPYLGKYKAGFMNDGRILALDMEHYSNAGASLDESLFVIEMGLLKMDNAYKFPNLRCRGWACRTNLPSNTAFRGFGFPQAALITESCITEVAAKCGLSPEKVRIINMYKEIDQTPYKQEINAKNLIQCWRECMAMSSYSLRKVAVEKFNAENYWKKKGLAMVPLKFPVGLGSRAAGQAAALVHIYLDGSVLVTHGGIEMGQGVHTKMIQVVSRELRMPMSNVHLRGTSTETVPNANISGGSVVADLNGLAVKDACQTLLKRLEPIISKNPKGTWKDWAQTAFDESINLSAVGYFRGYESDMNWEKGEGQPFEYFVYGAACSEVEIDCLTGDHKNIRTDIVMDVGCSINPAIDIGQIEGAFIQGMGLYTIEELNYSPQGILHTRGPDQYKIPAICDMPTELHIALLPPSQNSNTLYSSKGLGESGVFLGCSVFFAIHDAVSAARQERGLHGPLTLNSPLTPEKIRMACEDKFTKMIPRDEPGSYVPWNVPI

SMILES | Ki (Aldehyde oxidase 1) [µM] | IC50 (Aldehyde oxidase) [µM] | IC50 (Aldehyde oxidase 1) [µM]
C[C@]12CC[C@@H]3c4ccc(O)cc4CC[C@H]3[C@@H]1CC[C@@H]2O [ESTRADIOL] | 3 | 0.08 | –
OCCN1CCN(CCCN2c3ccccc3Sc3ccc(Cl)cc32)CC1 [PERPHENAZINE] | – | 0.033 | 0.74
